Experimental findings from patent publication US20010000731A1, “Method for the prevention and treatment of chronic venous insufficiency” (priority 1999, published 2001) are described below.

The experiment concerns swelling of the recto-anus induced by croton oil. Briefly: Croton oil-induced hemorrhoid model in rats (recto-anus coefficient, RAC). In kind it is in vivo, rat. To be noted: male SD rats; pure alkaloid oral 1 mg/kg; RAC determined 24 hours after induction; FIG. 3. As to the method:
Male SD rats (6 weeks old, approximately 140 g) were purchased from Harlan Sprague Dawley and allowed to acclimate for 1 week. The rats were maintained in a pathogen-free facility in accordance with the National Research Council of Laboratory Animal care and use guidelines. Each experiment was preformed with age-matched rats 7- 8 weeks old. The croton oil-induced hemorrhoid model in rats was performed according to the method published by Nishiki (Nishiki et al. (1988) Folia Pharmacology Japan 92:215- 225; Nishiki et al. (1988) Folia Pharmacol. Japan 92:227-240). Briefly, a cotton swab with a diameter of 4 mm soaked with 0.16 mL of inducer (deionized water: pyridine : ethyl ether: 6% croton oil/ethyl ether (1:4:5:10) was applied to the rat's anus for 12 seconds. The final concentration of croton oil was 3%. The edema developed linearly until 7-8 hours after application and the severity of the edema was sustained for more than 24 hours. Twenty-four hours later, recto-anus tissue (approx. 10 mm long) was isolated after the rats were euthanized. The weights of rat body and recto-anus were measured. The recto-anus coefficient (RAC) was calculated using the formula: weight of recto-anus (mg)/body weight (g).
The average RAC of croton oil-treated rats was 2.10, which was 38.2% higher than that the rats treated with vehicle only (RAC=1.52). Vehicle alone did cause significant swelling of the recto-anus as compared with the rats without any treatment (RAC=0.98). Twenty-four hours after hemorrhoid induction with croton oil followed by treatment orally with prickly ash extract at either 6 mg/kg or 30 mg/kg and by treatment topically with prickly ash extract at 6 mg/mL in 1:1 aquaphor, the RAC of rats was determined.
This experiment was performed as described in Example 5. […] Twenty-four hours after hemorrhoid induction with croton oil followed by treatment orally with the pure alkaloids isolated from prickly ash extract at 1 mg/kg, the RAC of rats was determined. […]
On to `COc1cc2c(cc1O)C[C@H]1c3c(cc(OC)c(O)c3-2)CC[N+]1(C)C` [Laurifoline], for which the “inhibition of the swelling of the recto-anus induced by croton oil (RAC)” value is “partially reduced”.
Turning to Chelerythrine, the “inhibition of the swelling of the recto-anus induced by croton oil (RAC)” value is on record as “partially reduced”.
Under `COc1ccc2c(c1O)-c1c(O)c(OC)cc3c1[C@H](C2)[N+](C)(C)CC3` [Magnoflorine] stands “completely inhibited”.
